Starred links: 1 amine or outer side, 2 acyl side, 3 side chain; linkers in the order of their positions; H or OH if unused. Non-standard residues stand in square brackets, D forms with d. Residues, ends and D or L forms follow the SMILES beside them. Phe(2-Me) = Cc1ccccc1C[CH](N)C(=O)O; X2 = CC(F)(F)CC(N[*:1])C(=O)[*:2]; Suc = O=C(CCC(=O)[*:2])[*:1]; Tle = CC(C)(C)[CH](N)C(=O)O
SMILES | melting point [°C]
O=C(O)CCCOc1c(Cl)cccc1Cl | 66 to 67
CCC(O)C=CC=CC=CC(=O)OCC1OC(OC2C(CO)OC3(OCc4cc(O)cc(O)c43)C(O)C2OC(=O)C=CC=CCC(O)C(C)=CC=CCCC(C)CC)C(O)C(O)C1O (stereo not given) | 193 to 197
COC(=O)Nc1cc(C(/C=C/c2c(OC)cc(OC)cc2OC)S(=O)(=O)C(/C=C/c2c(OC)cc(OC)cc2OC)c2ccc(OC)c(NC(=O)OC)c2)ccc1OC (stereo not given) | 188 to 191
CS(C)(=O)=NS(=O)(=O)c1cccc(F)c1C#N | 184
CC(=O)Oc1ccc(-c2cnc(N(S(=O)(=O)Cc3ccc(I)cc3)S(=O)(=O)Cc3ccc(I)cc3)c(Cc3ccccc3)n2)cc1 | 166 to 167
COc1cc(OC)c(C=CC(c2ccc(OC)c(NC(=O)C(C)O)c2)S(=O)(=O)C(C=Cc2c(OC)cc(OC)cc2OC)c2ccc(OC)c(NC(=O)C(C)O)c2)c(OC)c1 (stereo not given) | 174 to 176
CCn1cc(C(=O)Nc2cc(Oc3ccc4nc(NC(=O)C5CC5)cn4n3)ccc2Cl)c(C)n1 | 200
CC(C)COc1c(-c2ccc(S(N)(=O)=O)c(F)c2)cnn(-c2cccc(Cl)c2)c1=O | 157 to 159
O=P(Oc1c(Br)cc(Br)cc1Br)(Oc1c(Br)cc(Br)cc1Br)Oc1c(Br)cc(Br)cc1Br | 223 to 226
CCC(CC)NC(=O)c1ccc(-c2scc(-c3ccccc3Cl)c2CC(=O)OC)cc1 | 57 to 59
Nc1cc(C(F)(F)C(F)(F)OC(F)(F)C(F)(OC(F)(F)C(F)(F)OC(F)(C(F)(F)F)C(F)(F)OC(F)(F)C(F)(F)c2ccc(O)c(N)c2)C(F)(F)F)ccc1O (stereo not given) | 55 to 58
COc1cc2c(cc1I)C(=O)CC2 | 129 to 130
CCCSC(=O)c1ccc([Si](CCC(F)(F)C(F)(F)C(F)(F)C(F)(F)C(F)(F)C(F)(F)C(F)(F)C(F)(F)C(F)(F)C(F)(F)F)(CCC(F)(F)C(F)(F)C(F)(F)C(F)(F)C(F)(F)C(F)(F)C(F)(F)C(F)(F)C(F)(F)C(F)(F)F)CCC(F)(F)C(F)(F)C(F)(F)C(F)(F)C(F)(F)C(F)(F)C(F)(F)C(F)(F)C(F)(F)C(F)(F)F)cc1 | 69 to 71
CCOC(=O)OC1=C(c2cc(C)ccc2C)C(=O)NC1CC1CCS(=O)(=NC(=O)C(F)(F)F)CC1 (stereo not given) | 87 to 89
COc1cc(OC)c(/C=C/C(c2ccc(OC)c(NCC(=O)O)c2)S(=O)(=O)C(/C=C/c2c(OC)cc(OC)cc2OC)c2ccc(OC)c(NCC(=O)O)c2)c(OC)c1 (stereo not given) | 128 to 131
Ic1cc(NC2=NCCN2)cc2[nH]cnc12 | 180 to 181
CCCC(=O)C(=CNc1ccc(COC(=O)c2ccccc2)cc1)C(=O)OCC | 73 to 75
CC(=O)OCC(CNC(=O)c1c(I)c(NC(=O)C2CCCO2)c(I)c(C(=O)NCC(COC(C)=O)OC(C)=O)c1I)OC(C)=O (stereo not given) | 101 to 104
O=C1OC(=O)c2ccc3c4c(ccc1c24)C(=O)OC3=O | 300
CC=C(C)C(=O)NC(c1ccccc1)C(O)C(=O)OC1CC2(O)C(OC(=O)c3ccccc3)C3C4(OC(C)=O)COC4CC(O)C3(C)C(=O)C(OC(C)=O)C(=C1C)C2(C)C (stereo not given) | 184 to 186
CC(C)[Si](OC(=O)Cc1cc(I)c(Oc2cc(I)c(OCC3CO3)c(I)c2)c(I)c1)(C(C)C)C(C)C (stereo not given) | 120

SMILES | melting point [°C]
COc1cc(OC)c(/C=C/C(c2ccc(OC)c(NC(=O)CN3CCN(C)CC3)c2)S(=O)(=O)C(/C=C/c2c(OC)cc(OC)cc2OC)c2ccc(OC)c(NC(=O)CN3CCN(C)CC3)c2)c(OC)c1 (stereo not given) | 176 to 178
COC(=O)CCc1ccc(N(c2ccc(-c3ccc(N(c4ccc(CCC(=O)OC)cc4)c4cccc5c4Cc4ccccc4-5)cc3)cc2)c2cccc3c2Cc2ccccc2-3)cc1 | 127 to 129
Cc1ccc(-c2c(-c3ccc(S(N)(=O)=O)cc3)[nH]c3ccccc23)cc1C | 251 to 253
CCc1nc(OC)c(NC(=O)N2CCN(c3cc(OC)cc(OC)c3)CC2)cc1C(=O)NC(C)C(=O)Nc1cc(CO)cc(Nc2c3ccccc3nc3ccccc23)c1 (stereo not given) | 231 to 233
CCOC1OC(CO)C(OC2OC(COC(C)=O)C(OC3OC(COC(C)=O)C(OC(C)=O)C(OC(C)=O)C3OC(C)=O)C(OC(C)=O)C2OC(C)=O)C(O)C1NC(C)=O (stereo not given) | 260 to 262
COC(=O)COC1C(NC(C)=O)C(OCc2ccccc2)OC(COCc2ccccc2)C1OC1(N)OC(COCc2ccccc2)C(OCc2ccccc2)C(OCc2ccccc2)C1C(=O)OCC(Cl)(Cl)Cl (stereo not given) | 176 to 178
Cc1cc(-c2nc3c(S(C)=O)cc(Cl)nn3c2-c2ccnc(N)c2)ccc1F (stereo not given) | 216 to 217
Cc1ccccc1CC(NC(=O)C(CCC(=O)O)NC(=O)C(CC(=O)O)NC(=O)CCC(=O)O)C(=O)NC(C(=O)NC(CC(C)C)C(=O)NC(C=O)CC(C)(F)F)C(C)(C)C (stereo not given) (Suc-DE[Phe(2-Me)][Tle]L[X2]-aldehyde; configuration not given here) | 128 to 130
O=C(NCCCCCCCCCCCCNC(=O)C(O)C(O)C(OC1OC(CO)C(O)C(O)C1O)C(O)CO)C(O)C(O)C(OC1OC(CO)C(O)C(O)C1O)C(O)CO (stereo not given) | 79 to 81
CC(=O)OCC(COC(C)=O)NC(=O)c1c(I)c(C(=O)NC(COC(C)=O)COC(C)=O)c(I)c(N2C(=O)OCC2CO)c1I (stereo not given) | 235 to 240
COc1cc2c3c(ccc4c5ccc6c7c(cc(OC)c(c1c34)c75)-c1ccccc1C6C#C[Si](C(C)C)(C(C)C)C(C)C)C(C#C[Si](C(C)C)(C(C)C)C(C)C)c1ccccc1-2 (stereo not given) | 295 to 298
O=C(CN1CCN(C(=O)c2cc(C(F)(F)F)cc(C(F)(F)F)c2)[C@H](Cc2c[nH]c3ccccc23)C1)N1CCN(C(c2ccccc2)(c2ccccc2)c2ccccc2)CC1 | 160 to 166
CCOc1ccc(C(=CC2(C=C(c3ccc(OCC)cc3)c3ccc(N4CCCC4)cc3)OC(=O)c3c(Cl)c(Cl)c(Cl)c(Cl)c32)c2ccc(N3CCCC3)cc2)cc1 (stereo not given) | 221 to 223
FC(F)(F)C1(CNC2=NCCN2)CCCCC1 | 154 to 157
CCN(CC)CCN=S(=O)(c1ccccc1)c1ccco1 (stereo not given) | 133
Cc1ccc(C(=O)OCCN(C)C)cc1-n1c(C)cc(OCc2ccc(F)cc2CNC(=O)Nc2cc(C(C)(C)C)nn2-c2cccc(OCCO)c2)c(Cl)c1=O | 158 to 160
[C-]#[N+]C(c1cc(Br)c(OC)c(OC)c1)S(=O)(=O)c1ccc(C)cc1 (stereo not given) | 109 to 110
CCN1CCN(c2ccc(-c3ccnc(Nc4cc(OC)c(OC)c(OC)c4)n3)cn2)CC1 | 139
O=C(O)CCC(CC=Cc1ccc(Cl)cc1)(C(=O)C=Cc1ccc(Cl)cc1)c1ccccc1 (stereo not given) | 178 to 180
CC(C)[C@H](NC(=O)OCc1ccccn1)C(=O)N[C@@H](Cc1ccccc1)[C@H](O)[C@@H](O)[C@H](Cc1ccccc1)NC(=O)[C@@H](NC(=O)N(C)Cc1csc(N)n1)C(C)C | 188 to 192

Next, values leading:

melting point [°C] | SMILES
68 to 70 | C=CCOC1OC(CO)C(O)C(OC(=O)CC(CCCCCCCCCCC)OC(=O)CCCCCCCCCCCCC)C1NC(=O)OCC(Cl)(Cl)Cl (stereo not given)
318 to 320 | CC1(C)CC(Nc2nc(N(C3CC(C)(C)NC(C)(C)C3)C3CC(C)(C)NC(C)(C)C3)nc(N(C3CC(C)(C)NC(C)(C)C3)C3CC(C)(C)NC(C)(C)C3)n2)CC(C)(C)N1
194 to 196 | CCOC(CN1C(=O)C2=C(c3cc4cc(C(C)(C)C)cc(C(C)(C)C)c4o3)N(CC(OCC)OCC)C(=O)C2=C1c1cc2cc(C(C)(C)C)cc(C(C)(C)C)c2o1)OCC
199 | COc1cc(C2c3cc4c(cc3C(NC(=O)CNCCCCN(CCCNC(=O)OCc3ccccc3)C(=O)OCc3ccccc3)C3COC(=O)C23)OCO4)cc(OC)c1O (stereo not given)
88 to 89.5 | CCCCCC/C(=C\C=C\C(=O)O)c1ccc(OC)cc1
136 to 137 | CCCCCCCCCCCCc1c2c(c(CCCCCCCCCCCC)c3c1-c1ccc(Br)cc1C3=C(C#N)C#N)-c1ccc(Br)cc1C2=C(C#N)C#N
155 | COc1cc2c(cc1-c1cc3c4cc(-c5ccccc5)ccc4n(CCC(C)CCCC(C)C)c3cc1OC)c1cc(-c3ccccc3)ccc1n2CCC(C)CCCC(C)C (stereo not given)
144 | CCC(Cc1c(I)cc(I)c(NC(=O)CCCCCNC(=O)C(COCc2ccccc2)N2CCNCCNCCNCC2)c1I)C(=O)O (stereo not given)
137 to 140 | CCCCC(CC)CN1C(=O)C(=Cc2cc3c(s2)c2sc(-c4ccc(N(c5ccccc5)c5ccccc5)cc4)cc2n3CC(CC)CCCC)C(C)=C(C#N)C1=O (stereo not given)
66 to 70 | CCCCCCCCCCCCCCCCCCOC(=O)CCSCc1c(C)c(O)c(C)c(CSCCC(=O)OCCCCCCCCCCCCCCCCCC)c1C
167 to 171 | CC(C)c1cc(C(C)C)c(CC(=O)NS(=O)(=O)Oc2c(C(C)C)cc(C(=O)[C@H](CCCCNC(=O)OC(C)(C)C)NC(=O)OC(C)(C)C)cc2C(C)C)c(C(C)C)c1
84 to 86 | C[C@H](Cc1ccc(OCCCN2CCCCC2)c(OCCCN2CCCCC2)c1)[C@@H](C)Cc1ccc(OCCCN2CCCCC2)c(OCCCN2CCCCC2)c1
150 to 152 | CCC(=O)OC1(C(=O)C(O)OC(=O)C(NC(=O)C2CCCN2C(=O)C(C)NC(=O)C(C)NC(=O)N(c2ccccc2)c2ccccc2)C(C)C)CCC2C3CC(C)C4=CC(=O)C=CC4(C)C3C(O)CC21C (stereo not given)
161 to 163 | C=CCN1C(C)(C)CC(N(CCCC)c2nc(N(CCCC)C3CC(C)(C)N(CC=C)C(C)(C)C3)nc(N(CCCC)C3CC(C)(C)N(CC=C)C(C)(C)C3)n2)CC1(C)C
73 to 75 | CCCCCCCCCCCCCCCCCCCCCC(=O)OCCN(CCOC(=O)CCCCCCCCCCCCCCCCCCCCC)CC(=O)O
91 to 93 | CCCCCCCCCCCCCCCCCCN(CCCCCCCCCCCCCCCCCC)C(=O)c1c(NS(=O)(=O)c2cccc(C(C)=O)c2)cc2ccccc2c1OC(=O)c1ccccc1
261 to 265 | CCCCCCC1(CCCCCC)c2cc(-c3ccc4c(c3)nc(N)c3nc(COCC)n(CC(C)(C)O)c34)ccc2-c2ccc(-c3ccc4c(c3)nc(N)c3nc(COCC)n(CC(C)(C)O)c34)cc21
113 to 115 | C=CCN(CC=C)c1nc(OC)nc(N(CCCCCCN(c2nc(OC)nc(N(CC=C)CC=C)n2)C2CC(C)(C)NC(C)(C)C2)C2CC(C)(C)NC(C)(C)C2)n1
124 to 125 | CCCCCCC=CC(OC(=O)c1ccccc1)C(COC1OC(COCC(=O)O)C(OCC(=O)O)C(OC(=O)c2ccccc2)C1OC(=O)c1ccccc1)NC(=O)CCCCCCCCC(=O)OC (stereo not given)

From a melting point compilation (Tetko et al.)
